Entries after “also recorded” stand apart in the source; their conditions may differ. Read-outs that look alike come from different tables or passages of the source.
How the values were obtained:
dermal CYP1A = assay: in vitro; details: for inhibitory effect on dermal CYP1A activity, in words: at certain concentration (1, 10 or 100 μM); for enhancing effect on dermal CYP1A activity, in words: at certain concentrations (1, 10 or 100 μM)
From the text: (§1) Nude mice were sacrificed by decapitation.
(§2) The precipitate containing the microsomes was obtained.

liver CYP1A [1] = system: liver CYP1A
Protocol: (§3) Nude mice were sacrificed by decapitation. The skin and liver were immediately removed and kept in ice bath or 4° C. […] Connective tissue, blood, and fat were carefully removed from the tissue. Excess water content was removed from the homogenized tissue by tissue papers before the tissue was weighed.
(§4) The suspension of homogenized tissue in potassium chloride solution was transferred into a Teflon pestle-glass homogenizer for homogenization for six (6) times. Then, potassium chloride solution was added into the homogenized suspension to bring the volume to about four (4) times of the homogenized suspension. The diluted suspension was 5 transferred into a centrifuge tube and centrifuged at 4° C., 9000 xg, for twenty (20) minutes. The supernatant containing microsomes from skin or liver tissue and other soluble substance were removed and the volume of the supernatant was brought up to four (4) times of the weight of the tissue by adding potassium chloride solution. The diluted supernatant was transferred into a centrifuge tube and centrifuged at 4° C., 100,000 xg, for one (1) hour (Beckman L8-80M). The precipitate containing the microsomes was obtained. Potassium chloride solution was added into the precipitate to bring the volume up to four (4) times of the weight of the tissue, and the suspension was centrifuged at 4° C., 100,000 xg for one (1) hour, to obtain the washed microsomes, which were stored at −78° C. in 0.1M KH2PO4-K2HPO4 buffer (pH=7.4).
(§5) The enzymatic activity of CYP1A was determined based on the activity of 7-ethoxyresorufin-O-deethylase (i.e., for CYP1A) and 7-methoxyresorufin-O-demethylase (i.e., CYP1A2). […] Except for the blank group, the reaction was triggered by adding 0.54 μM NADPH. In the test tube (16×100 mm), the reaction was carried out for ten (10) minutes at constant temperature (37° C.) with vibration and without light Methanol 2.5 ml was added into the reaction mixture to stop the reaction. Protein precipitate was removed from the reaction mixture by centrifuging the reaction mixture at 180 xg for ten (10) minutes. The supernatant was tested for florescent intensity with 550 nm as the excitation wavelength and 585 nm the emission wavelength. The florescent intensity was compared with 0.01 μM-0.1 μM standard Rhodamine B solution to obtain the reading of the CYP1A enzyme activity.

CYP1A [2] = assay: in vitro; details: nude, mouse
From the text: as §1, §2

CYP1A [3] = assay: in vitro; details: nude, mouse, pH 7.8
Protocol: as §3, §4, §5

CYP1A [4] = assay: Liver microsomal CYP1A enzymatic activity, inhibition or enhancement; details: nude, mouse
Protocol: as §3, §4, §5

liver CYP1A [5] = assay: as above; details: at certain concentration (1, 10 or 100 μM)
Protocol: as §3, §4, §5

[6] = pH 7.8, dermal CYP1A activity (% of control group)
[7] = pH 7.8, inhibition of dermal CYP1A activity
[8] = liver microsomes, pH 7.8, probe 7-ethoxyresorufin

Row | Structure (SMILES) | activity at 10 min, 1 µM (CYP1A [2]; [6]) [%] | activity at 10 min, 10 µM (CYP1A [2]; [6]) [%] | activity at 10 min, 100 µM (CYP1A [2]; [6]) [%] | inhibition at 10 min, 100 µM (CYP1A [2]; [7]) [%] | activity at 10 min, 1 µM (CYP1A [4]; [8]) [%] | activity at 10 min, 10 µM (CYP1A [4]; [8]) [%] | activity at 10 min, 100 µM (CYP1A [4]; [8]) [%] | enhancing effect on liver CYP1A activity, in words (liver CYP1A [5]) | activity at 10 min, 10 µM (CYP1A [2]; pH 7.8) [%] | activity at 10 min, 100 µM (CYP1A [2]; pH 7.8) [%] | inhibitory effect on dermal CYP1A activity, in words (dermal CYP1A) | inhibitory effect on liver CYP1A activity, in words (liver CYP1A [5]) | further results
1 | O=c1cc(-c2ccccc2)oc2c1ccc1ccccc12 [Alpha-NF, α-naphthoflavone] | – | – | – | – | – | – | – | – | – | – | – | – | dose dependence of the inhibitory effect on dermal CYP1A (dermal CYP1A): dose-dependent; inhibition of dermal microsomal CYP1A activity (dermal CYP1A): more than 90%; dermal CYP1A activity (% of control group) (dermal CYP1A; 100 µM): 0.83%; liver CYP1A activity (% of control group) (liver CYP1A [1]; 1 µM): 32.91%; liver CYP1A activity (% of control group) (liver CYP1A [1]; 10 µM): 11.06%; liver CYP1A activity (% of control group) (liver CYP1A [1]; 100 µM): 7.77%
2 | C[C@@H]1O[C@@H](OC[C@H]2O[C@@H](Oc3c(-c4ccc(O)c(O)c4)oc4cc(O)cc(O)c4c3=O)[C@H](O)[C@@H](O)[C@@H]2O)[C@H](O)[C@H](O)[C@H]1O [Rutin] | 94.1 | 98.4 | 59.2 | ~41 | 117 | 124 | 90.7 | enhancing effect | – | – | inhibition effects | inhibitory effects | enhancing effect on dermal CYP1A activity, in words (dermal CYP1A): enhancing effects
3 | O=c1c(-c2ccc(O)cc2)coc2cc(O[C@@H]3O[C@H](CO)[C@@H](O)[C@H](O)[C@H]3O)ccc12 [Daidzin] | – | – | – | – | 110 | 112 | 111 | enhancing effect | 84.2 | 70.4 | inhibition effects | – | activity at 10 min, 1 µM (CYP1A [2]; pH 7.8): 111%; inhibition at 10 min, 100 µM (CYP1A [2]; pH 7.8): ~30%; enhancing effect on dermal CYP1A activity, in words (dermal CYP1A): enhancing effects
4 | O=c1cc(-c2ccccc2)oc2ccc3ccccc3c12 [Beta-NF, β-naphthoflavone] | – | – | – | – | – | – | – | – | – | – | – | – | dermal CYP1A activity (% of control group) (dermal CYP1A; 1 µM): 27.41%; dermal CYP1A activity (% of control group) (dermal CYP1A; 10 µM): 24.00%; dermal CYP1A activity (% of control group) (dermal CYP1A; 100 µM): 3.76%; liver CYP1A activity (% of control group) (liver CYP1A [1]; 1 µM): 75.00%; liver CYP1A activity (% of control group) (liver CYP1A [1]; 10 µM): 22.78%; liver CYP1A activity (% of control group) (liver CYP1A [1]; 100 µM): 13.79%
5 | C[C@@H]1O[C@@H](Oc2c(-c3ccc(O)c(O)c3)oc3cc(O)cc(O)c3c2=O)[C@H](O)[C@H](O)[C@H]1O [Quercitrin] | – | – | – | – | – | 104 | 89.2 | enhancing effect | 77.1 | 75 | inhibition effects | inhibitory effects | activity at 10 min, 1 µM (CYP1A [4]; pH 7.8): 109%; activity at 10 min, 1 µM (CYP1A [2]; pH 7.8): 87.8%; inhibition at 10 min, 100 µM (CYP1A [2]; pH 7.8): ~25%
6 | O=C(O)/C=C/c1ccccc1 [Trans-cinnamic acid] | 117 | 110 | 86.6 | ~13 | – | – | – | – | – | – | – | – | activity at 10 min, 1 µM (CYP1A [3]): 109%; activity at 10 min, 10 µM (CYP1A [3]): 103%; activity at 10 min, 100 µM (CYP1A [3]): 101%
7 | CC1(C)CC[C@]2(C(=O)O)CC[C@]3(C)C(=CC[C@@H]4[C@@]5(C)CC[C@H](O)C(C)(C)[C@@H]5CC[C@]43C)[C@@H]2C1 [Oleanolic acid] | – | – | – | – | 94 | 99.9 | 87.3 | – | – | – | inhibition effects | inhibitory effects | activity at 10 min, 1 µM (CYP1A [2]; skin (dermal) microsomes, pH 7.8, probe 7-ethoxyresorufin, dermal CYP1A activity (% of control group), compound 1 μM, skin microsomes, mean of at least 3 repeats): 24%; activity at 10 min, 10 µM (CYP1A [2]; skin (dermal) microsomes, pH 7.8, probe 7-ethoxyresorufin, dermal CYP1A activity (% of control group), compound 10 μM, skin microsomes, mean of at least 3 repeats): 25.7%; activity at 10 min, 100 µM (CYP1A [2]; skin (dermal) microsomes, pH 7.8, probe 7-ethoxyresorufin, dermal CYP1A activity (% of control group), compound 100 μM, skin microsomes, mean of at least 3 repeats): 46.7%; inhibition at 10 min, 1 µM (CYP1A [2]; skin (dermal) microsomes, pH 7.8, probe 7-ethoxyresorufin, inhibition of dermal CYP1A activity, compound 1 μM): ~76%
8 | CC(C)[C@@H](C)/C=C/[C@@H](C)[C@H]1CC[C@H]2C3=CC=C4C[C@@H](O)CC[C@]4(C)[C@H]3CC[C@]12C [Ergosterol] | – | – | – | – | 103 | 104 | 97.7 | enhancing effect | 57.3 | 52.2 | – | inhibitory effects | –
9 | O=c1c(O[C@@H]2O[C@H](CO)[C@@H](O)[C@H](O)[C@H]2O)c(-c2ccc(O)c(O)c2)oc2cc(O)cc(O)c12 [Isoquercitrin] | 112 | 67 | 44.2 | ~56 | 99 | 104 | 95.7 | enhancing effect | – | – | inhibition effects | inhibitory effects | enhancing effect on dermal CYP1A activity, in words (dermal CYP1A): enhancing effects
10 | O=C(O)c1ccc(O)c(O)c1 [Protocatechuic acid] | 138 | 121 | 102 | – | 119 | 123 | 107 | enhancing effect | – | – | – | – | –

The next lines start with results.

Row | activity at 10 min, 1 µM (CYP1A [2]; [6]) [%] | activity at 10 min, 10 µM (CYP1A [2]; [6]) [%] | activity at 10 min, 100 µM (CYP1A [2]; [6]) [%] | inhibition at 10 min, 100 µM (CYP1A [2]; [7]) [%] | activity at 10 min, 1 µM (CYP1A [4]; [8]) [%] | activity at 10 min, 10 µM (CYP1A [4]; [8]) [%] | activity at 10 min, 100 µM (CYP1A [4]; [8]) [%] | Structure (SMILES) | enhancing effect on liver CYP1A activity, in words (liver CYP1A [5]) | activity at 10 min, 10 µM (CYP1A [2]; pH 7.8) [%] | activity at 10 min, 100 µM (CYP1A [2]; pH 7.8) [%] | inhibitory effect on dermal CYP1A activity, in words (dermal CYP1A) | inhibitory effect on liver CYP1A activity, in words (liver CYP1A [5]) | further results
11 | 103 | 97.2 | 76.4 | ~24 | – | – | – | O=c1cc(-c2ccc(O)cc2)oc2cc(O)cc(O)c12 [Apigenin] | – | – | – | – | – | activity at 10 min, 1 µM (CYP1A [3]): 118%; activity at 10 min, 100 µM (CYP1A [3]): 53.5%
12 | – | – | – | – | 109 | 108 | 109 | O=c1c(-c2ccc(O)cc2)coc2cc(O)cc(O)c12 [Genistein] | enhancing effect | 60.2 | 35.4 | inhibition effects | – | activity at 10 min, 1 µM (CYP1A [2]; pH 7.8): 77.4%; inhibition at 10 min, 100 µM (CYP1A [2]; pH 7.8): ~65%
13 | ~34 | ~22 | 0 | > 90 | 100 | 68.9 | 18.1 | O=c1c(O)c(-c2ccc(O)cc2)oc2cc(O)cc(O)c12 [Kaempferol] | – | – | – | – | inhibitory effects; also recorded: most inhibitory effect; also recorded: most effective inhibitors | inhibition at 10 min, 100 µM (CYP1A [4]; [8]): ~82%; dose dependence of the inhibitory effect on dermal CYP1A (dermal CYP1A): dose-dependent effect; dermal CYP1A activity (% of control group) (dermal CYP1A; nude, mouse, 10 min, 1 µM, pH 7.8): 33.73%; dermal CYP1A activity (% of control group) (dermal CYP1A; nude, mouse, 10 min, 10 µM, pH 7.8): 22.35%

From patent publication US20030166583A1, “Dermal cytochrome P450 1A inhibitors and enhancers” (priority 2002, published 2003)
